From US20050222253A1, “Anti-cancer nitro- and thia-fatty acids” (priority 1999, published 2005)
“Also recorded” adds a separate entry of the source.

Key:
15-LO [1] = biological target: T1, 15-LO (Glycine max, UniProt P08170); test: Effect on 15-LO catalysed oxidation of arachidonic acid; assay type: biochemical, soybean; conditions: varying concentrations of compound
T1 construct: purchased Sigma Chemical Company
T1 sequence (P08170 1-839): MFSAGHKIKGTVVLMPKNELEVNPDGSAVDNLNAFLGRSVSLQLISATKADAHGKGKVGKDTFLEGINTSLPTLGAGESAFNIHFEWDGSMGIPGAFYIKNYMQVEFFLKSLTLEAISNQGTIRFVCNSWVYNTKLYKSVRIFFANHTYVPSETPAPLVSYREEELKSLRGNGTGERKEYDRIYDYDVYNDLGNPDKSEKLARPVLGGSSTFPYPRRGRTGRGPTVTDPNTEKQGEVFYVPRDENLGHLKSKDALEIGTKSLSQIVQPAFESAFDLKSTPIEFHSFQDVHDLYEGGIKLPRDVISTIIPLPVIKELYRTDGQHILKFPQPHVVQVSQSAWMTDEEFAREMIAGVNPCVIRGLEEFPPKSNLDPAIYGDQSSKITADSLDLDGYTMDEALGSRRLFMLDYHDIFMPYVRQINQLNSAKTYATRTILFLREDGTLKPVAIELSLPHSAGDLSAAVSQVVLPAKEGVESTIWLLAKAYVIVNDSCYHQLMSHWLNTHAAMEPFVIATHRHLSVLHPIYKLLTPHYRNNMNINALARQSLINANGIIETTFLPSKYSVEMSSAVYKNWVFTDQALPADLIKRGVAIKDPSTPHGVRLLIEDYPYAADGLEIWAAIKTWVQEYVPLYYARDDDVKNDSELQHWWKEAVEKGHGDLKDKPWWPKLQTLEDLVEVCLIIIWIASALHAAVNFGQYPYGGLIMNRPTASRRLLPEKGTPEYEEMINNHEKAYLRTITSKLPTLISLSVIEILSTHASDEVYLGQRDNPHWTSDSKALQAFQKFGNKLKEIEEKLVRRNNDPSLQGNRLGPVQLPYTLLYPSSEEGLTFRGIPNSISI
Procedure: (§1) Based on this consideration, 5-LO, 12-LO and 15-LO catalysed oxidation of the nitro compounds (4a, 4b, 6a, 6b, 8a and 8b) was investigated. Each of the nitro compounds was treated with 15-LO in pH 9.0 buffer (or 5-LO in pH 6.3 buffer and 12-LO in pH 7.4 buffer), and the formation of 15-hydroperoxy derivatives (or 5-hydroperoxy or 12-hydroperoxy derivatives) over time was monitored by LW spectroscopy at 234 nm.
The inhibitor constant (Ki or KI) of compound 8a was also determined.
(§2) 15-LO was obtained from Sigma Chemical Company, and 12-LO from Cayman Chemical Company. Arachidonic acid 1, linolenyl alcohol 57a, gamma linolenyl alcohol 5b, arachidonyl alcohol 57c and docosahexaenyl alcohol 57d were purchased from Nu-Chek Prep. Inc. Elysian, Minn., USA. Other chemicals were commercially available from Aldrich Chemical Company.

5-LO [2] = biological target: T2, 5-LO (Solanum tuberosum, UniProt P37831); test: Effect on 5-LO catalysed oxidation of arachidonic acid; assay type: biochemical; conditions: preliminary experiment; purified enzyme; result in words
T2 sequence (P37831 whole entry): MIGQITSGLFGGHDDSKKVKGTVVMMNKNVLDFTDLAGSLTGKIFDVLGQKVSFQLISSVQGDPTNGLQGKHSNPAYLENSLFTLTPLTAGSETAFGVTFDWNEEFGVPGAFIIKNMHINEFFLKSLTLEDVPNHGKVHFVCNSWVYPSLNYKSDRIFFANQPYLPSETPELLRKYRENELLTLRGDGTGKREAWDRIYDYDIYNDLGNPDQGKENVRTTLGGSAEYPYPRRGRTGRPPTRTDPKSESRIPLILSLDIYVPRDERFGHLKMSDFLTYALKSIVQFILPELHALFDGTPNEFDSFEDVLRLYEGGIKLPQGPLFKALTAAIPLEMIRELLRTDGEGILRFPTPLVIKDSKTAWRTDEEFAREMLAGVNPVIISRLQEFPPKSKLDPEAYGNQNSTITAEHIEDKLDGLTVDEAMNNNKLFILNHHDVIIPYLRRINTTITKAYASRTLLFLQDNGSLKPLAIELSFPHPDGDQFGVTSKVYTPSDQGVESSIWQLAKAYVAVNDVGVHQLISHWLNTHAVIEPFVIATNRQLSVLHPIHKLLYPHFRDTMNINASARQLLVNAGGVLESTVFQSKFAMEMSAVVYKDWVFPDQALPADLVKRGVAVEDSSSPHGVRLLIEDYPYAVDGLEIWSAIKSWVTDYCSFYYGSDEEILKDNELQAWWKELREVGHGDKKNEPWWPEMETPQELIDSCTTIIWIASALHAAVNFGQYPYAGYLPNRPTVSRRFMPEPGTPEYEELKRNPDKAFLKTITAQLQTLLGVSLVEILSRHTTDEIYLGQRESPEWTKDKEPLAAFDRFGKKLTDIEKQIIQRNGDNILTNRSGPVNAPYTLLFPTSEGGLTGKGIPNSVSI
Procedure: as §1, with “nm. […]” for “nm.”

12-LO [3] = biological target: T3, 12-LO (Sus scrofa, UniProt P16469); test: Effect on 12-LO catalysed oxidation of arachidonic acid; assay type: biochemical, porcine; conditions: preliminary experiment; result in words
T3 construct: purchased Cayman Chemical Company
T3 sequence (P16469 1-663): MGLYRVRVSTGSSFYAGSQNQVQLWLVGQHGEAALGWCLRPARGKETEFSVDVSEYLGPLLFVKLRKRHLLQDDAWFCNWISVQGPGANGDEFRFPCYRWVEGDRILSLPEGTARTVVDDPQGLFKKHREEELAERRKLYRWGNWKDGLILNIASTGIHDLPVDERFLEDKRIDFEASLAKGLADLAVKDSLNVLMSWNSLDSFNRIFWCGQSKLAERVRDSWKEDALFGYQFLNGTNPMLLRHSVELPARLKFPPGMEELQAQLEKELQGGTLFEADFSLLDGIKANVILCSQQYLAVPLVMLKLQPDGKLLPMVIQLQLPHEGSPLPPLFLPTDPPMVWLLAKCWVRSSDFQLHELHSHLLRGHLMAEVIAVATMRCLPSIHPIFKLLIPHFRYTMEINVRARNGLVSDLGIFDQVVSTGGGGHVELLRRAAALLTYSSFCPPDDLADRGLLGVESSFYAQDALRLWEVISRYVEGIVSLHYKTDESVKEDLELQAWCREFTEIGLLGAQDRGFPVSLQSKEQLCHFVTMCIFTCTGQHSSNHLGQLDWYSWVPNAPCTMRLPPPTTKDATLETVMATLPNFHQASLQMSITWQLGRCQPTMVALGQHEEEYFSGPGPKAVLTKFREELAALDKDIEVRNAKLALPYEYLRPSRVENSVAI
Procedure: as §1
A number of Lx compounds were tested for anti 5-LOX and 12-LOX activities in the human breast cancer cell line, MCF-7. […] The ability of 5-LOX and 12-LOX to produce oxidated products of 20:4n-6 with a different absorption wavelength in the presence of nitroso-PUFA was examined and is shown in the progress curves in FIG. 6. […] Within cells, activation of 5-LOX is facilitated by 5-LOX activating protein (FLAP). Thus, in intact cells, Lx7 and Lx9 may be able to activate 5-LOX at lower concentrations than those required in the purified enzyme system shown in FIG. 6. […] By being able to activate 5-LOX and suppress 12-LOX, these compounds have the desired characteristics of anti-breast cancer agents as discussed previously.
as §2

15-LO [4] = biological target: T1, 15-LO; test: Effect on 15-LO catalysed oxidation of arachidonic acid; assay type: biochemical, soybean; conditions: preliminary experiment, result in words
15-LO [5] = biological target: T1, 15-LO; test: 15-LO catalysed oxidation of the nitro compounds (substrate test); assay type: biochemical, soybean; conditions: pH 9.0 buffer, 234 nm
Procedure: as §1

5-LO [6] = biological target: T2, 5-LO; test: 5-LO catalysed oxidation of the nitro compounds (substrate test); assay type: biochemical; conditions: pH 6.3 buffer, 234 nm
Procedure: as §1

12-LO [7] = biological target: T3, 12-LO; test: 12-LO catalysed oxidation of the nitro compounds (substrate test); assay type: biochemical, porcine; conditions: pH 7.4 buffer, 234 nm
Procedure: as §1

MCF-7 cells = test: Killing of MCF-7 breast cancer cells in vitro; assay type: cell-based, human; conditions: in vitro (FIG. 7); compared with 20:4n-6 toxicity
Excerpt: While interference with 5-LOX or 12-LOX activity individually impacts on growth rates of human breast cancer MCF-7 cells^(55,56), the simultaneous modification of the activities of both enzymes at once may cause death. […] Lx4, a nitroso-compound with the same number of carbon atoms and degree of unsaturation as Lx9 but lacking a COOH group, was ineffective (FIG. 7).

[8] = listed as (all-Z)-1-nitrotricosa-8,11,14,17-tetraenoic acid

SMILES | Inhibition pattern on 15-LO (1/v vs 1/[s]) (15-LO [1]) | Effect on 5-LO catalysed oxidation of AA (5-LO [2]) | Effect on 12-LO catalysed oxidation of AA (12-LO [3]) | melting point [°C] | Effect on 15-LO catalysed oxidation of AA (15-LO [4]) | Effect on 15-LO catalysed oxidation of AA (15-LO [4]; listed as 3-heptadecyl-3-nitropentane-1,5-dicarboxylic acid) | Effect on 15-LO catalysed oxidation of AA (15-LO [4]; listed as 8a) | Substrate for 15-LO (formation of 15-hydroperoxy derivative) (15-LO [5]; listed as 6b) | Substrate for 15-LO (formation of 15-hydroperoxy derivative) (15-LO [5]; [8]) | Substrate for 5-LO (formation of 5-hydroperoxy derivative) (5-LO [6]) | Substrate for 12-LO (formation of 12-hydroperoxy derivative) (12-LO [7]) | Substrate for 12-LO (formation of 12-hydroperoxy derivative) (12-LO [7]; listed as 6b) | Substrate for 12-LO (formation of 12-hydroperoxy derivative) (12-LO [7]; [8]) | Killing of MCF-7 tumour cells (MCF-7 cells)
CCCCCCCCCCCCCCCCCC(CCC(=O)O)(CCC(=O)O)[N+](=O)[O-] [Lx8, 3-Heptadecyl-3-nitropentane-1,5-dicarboxylic acid] | mixed inhibition pattern | Nil | Activatory | 102 | Inhibitory | selective inhibitors | inhibitory effect | – | – | – | – | – | – | –
CCCCC/C=C\C/C=C\C/C=C\C/C=C\CCCC(CCC(=O)O)[N+](=O)[O-] (centres unmarked) [Lx7, (all-Z)-4-Nitrotricosa-8,11,14,17-tetraenoic acid] | – | can activate 5-LOX; also recorded: Activatory | Substrate | – | Substrate | – | – | served as a substrate | good substrate; also recorded: comparable to that of arachidonic acid | not for 5-LO | substrate for 12-LOX | served as a substrate | good substrate | kill these tumour cells
